Read-outs that look alike come from different tables or passages of the source. Starred links: 1 amine or outer side, 2 acyl side, 3 side chain; linkers in the order of their positions; H or OH if unused. Non-standard residues stand in square brackets, D forms with d. Residues, ends and D or L forms follow the SMILES beside them. ξ: configuration not given here. *: point of attachment. Oic = O=C(O)[C@@H]1C[C@@H]2CCCC[C@@H]2N1; Phe(4-Cl) = N[C@@H](Cc1ccc(Cl)cc1)C(=O)O; γGlu = O=C(O)[C@H](CCC(=O)[*:2])N[*:1]; d(β3hF) = N[C@@H](CC(=O)O)Cc1ccccc1; NMeR = CN[C@@H](CCCNC(=N)N)C(=O)O; Palmitoyl = CCCCCCCCCCCCCCCC(=O)*; Tridecanoyl = CCCCCCCCCCCCC(=O)*; hArg = N=C(N)NCCCC[C@H](N)C(=O)O; Cha = N[C@@H](CC1CCCCC1)C(=O)O; αMeP = C[C@@]1(C(=O)O)CCCN1; Pip = O=C(O)[C@@H]1CCCCN1; β3hS = N[C@@H](CO)CC(=O)O; Ac6c = NC1(C(=O)O)CCCCC1; Nle = CCCC[C@H](N)C(=O)O; Orn = NCCC[C@H](N)C(=O)O; ξβ3hV = CC(C)C(N)CC(=O)O; AEEA = NCCOCCOCC(=O)O; Aib = CC(C)(N)C(=O)O
What was measured:
[1] = In vitro stability in rat liver homogenate; assay type: in vitro ADME; conditions: tissue homogenate
Summary of the method: (§1)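 Peptide 5 μM final; rat plasma / liver homog. / kidney homog.; 37° C., 4 hr. Quench MeOH + IS, vortex 15 min RT, spin 5500 g 15 min; supernatant by HR LC-MS.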

[2] = In vitro stability in rat plasma; assay type: in vitro ADME
Summary of the method: as §1

rat APJ receptor = target: T1, rat APJ receptor (Rattus norvegicus, UniProt Q9JHG3); experiment: [35S] GTPγS assay, rat APJ receptor; assay type: biochemical
T1 construct: expressed in transfected cells
T1 sequence (Q9JHG3 1-377): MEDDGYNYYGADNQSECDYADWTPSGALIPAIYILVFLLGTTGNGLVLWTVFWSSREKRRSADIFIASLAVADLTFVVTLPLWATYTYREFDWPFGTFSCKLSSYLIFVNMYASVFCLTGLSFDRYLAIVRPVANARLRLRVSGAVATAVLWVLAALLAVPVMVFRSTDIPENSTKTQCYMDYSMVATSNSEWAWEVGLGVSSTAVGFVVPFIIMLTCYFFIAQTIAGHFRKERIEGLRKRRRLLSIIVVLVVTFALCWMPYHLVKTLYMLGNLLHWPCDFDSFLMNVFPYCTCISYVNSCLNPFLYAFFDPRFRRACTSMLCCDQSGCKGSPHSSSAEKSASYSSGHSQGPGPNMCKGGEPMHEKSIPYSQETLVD
Method: The membranes were incubated with modified peptides in the assay buffer. […] Bound [^35S] GTPγS was separated from free radiolabel by filtration. The filter bound radioactivity was determined by liquid scintillation counting.

[3] = In vitro stability in rat kidney homogenate; assay type: in vitro ADME; conditions: rat, tissue homogenate
Summary of the method: as §1

[4] = Table 16, read-out: EC50 Rat APJ Receptor
[5] = rat APJ receptor, read-out: EC50 Rat APJ Receptor

| remaining at 4 h, 5 μM [1] [%] | remaining at 4 h, 5 μM [2] [%] | EC50 (rat APJ receptor; [4]) [nM] | remaining at 4 h, 5 μM [3] [%] | EC50 (rat APJ receptor; [5]) [nM] | SMILES |
| --- | --- | --- | --- | --- | --- |
| 39 | 79 | 3.75 | 2.5 | – | CCCCCCCCCCCCC(=O)N[C@@H](CCC(=O)NCCOCCOCC(=O)NCCOCCOCC(=O)N[C@@H](CCC(N)=O)C(=O)N[C@@H](CCCCNC(=N)N)C(=O)N1CCC[C@H]1C(=O)N(C)[C@@H](CCCNC(=N)N)C(=O)N[C@@H](CC1CCCCC1)C(=O)N[C@@H](CO)C(=O)N[C@@H](Cc1c[nH]cn1)C(=O)N[C@@H](CCCCN)C(=O)NCC(=O)N1[C@H](C(=O)N[C@@H](CCCC)C(=O)N2CCC[C@H]2C(=O)N[C@@H](Cc2ccc(Cl)cc2)C(=O)O)C[C@@H]2CCCC[C@@H]21)C(=O)O [compound 362] ({Tridecanoyl-γGlu-AEEA-AEEA}-Q[hArg]P[NMeR][Cha]SHKG[Oic][Nle]P[Phe(4-Cl)]-OH) |
| 13 | > 90 | 3.14 | < 1 | – | CCCCCCCCCCCCC(=O)N[C@@H](CCC(=O)NCCOCCOCC(=O)NCCOCCOCC(=O)N[C@H](CCC(N)=O)C(=O)N[C@@H](CCCNC(=N)N)C(=O)N1CCC[C@H]1C(=O)N(C)[C@@H](CCCNC(=N)N)C(=O)N[C@@H](CC1CCCCC1)C(=O)N[C@@H](CO)CC(=O)N[C@@H](Cc1c[nH]cn1)C(=O)N[C@@H](CCCCN)C(=O)NCC(=O)N1[C@H](C(=O)N[C@@H](CCCC)C(=O)NC(C)(C)C(=O)N[C@@H](Cc2ccc(Cl)cc2)C(=O)O)C[C@@H]2CCCC[C@@H]21)C(=O)O [compound 500] ({Tridecanoyl-γGlu-AEEA-AEEA}-[dQ]RP[NMeR][Cha][β3hS]HKG[Oic][Nle][Aib][Phe(4-Cl)]-OH) |
| 2 | > 90 | 1.49 | < 1 | – | CCCCCCCCCCCCC(=O)N[C@@H](CCC(=O)NCCOCCOCC(=O)NCCOCCOCC(=O)N[C@@H](CCCNC(=N)N)C(=O)N[C@@H](CCC(N)=O)C(=O)N[C@@H](CCCC)C(=O)N1CCC[C@H]1C(=O)N[C@@H](CCCCNC(=N)N)C(=O)N[C@@H](CC1CCCCC1)C(=O)N[C@@H](CO)C(=O)N[C@@H](C)C(=O)N[C@@H](CCCCN)C(=O)NCC(=O)N1CCCC[C@H]1C(=O)N[C@@H](CCCC)C(=O)N1CCC[C@H]1C(=O)N[C@@H](Cc1ccc(Cl)cc1)C(=O)O)C(=O)O [compound 564] ({Tridecanoyl-γGlu-AEEA-AEEA}-RQ[Nle]P[hArg][Cha]SAKG[Pip][Nle]P[Phe(4-Cl)]-OH) |
| 40.3 | > 90 | – | < 1 | 1.02 | CCCCCCCCCCCCC(=O)N[C@@H](CCC(=O)NCCOCCOCC(=O)NCCOCCOCC(=O)N[C@@H](CCCN)C(=O)N[C@@H](Cc1ccccc1)C(=O)N[C@@H](CCCCNC(=N)N)C(=O)N[C@@H](CCCCNC(=N)N)C(=O)N[C@@H](CCC(N)=O)C(=O)N(C)[C@@H](CCCNC(=N)N)C(=O)N1CCC[C@H]1C(=O)N(C)[C@@H](CCCNC(=N)N)C(=O)N[C@@H](CC1CCCCC1)C(=O)N[C@@H](CO)C(=O)N[C@@H](Cc1c[nH]cn1)C(=O)N[C@@H](CCCCN)C(=O)NCC(=O)N1[C@H](C(=O)N[C@@H](CCCC)C(=O)N2CCC[C@H]2C(=O)N[C@@H](Cc2ccc(Cl)cc2)C(=O)O)C[C@@H]2CCCC[C@@H]21)C(=O)O [compound 297] ({Tridecanoyl-γGlu-AEEA-AEEA}-[Orn]F[hArg][hArg]Q[NMeR]P[NMeR][Cha]SHKG[Oic][Nle]P[Phe(4-Cl)]-OH) |
| 6.2 | 76 | 0.18 | < 1 | – | CCCCCCCCCCCCC(=O)N[C@@H](CCC(=O)NCCOCCOCC(=O)NCCOCCOCC(=O)N[C@@H](CCC(N)=O)C(=O)N[C@@H](CCCNC(=N)N)C(=O)N1CCC[C@H]1C(=O)N[C@@H](CCCCNC(=N)N)C(=O)N[C@@H](CC1CCCCC1)C(=O)N[C@@H](CO)C(=O)N[C@@H](Cc1c[nH]cn1)C(=O)N[C@@H](CCCCN)C(=O)NCC(=O)N1[C@H](C(=O)N[C@@H](CCCC)C(=O)N2CCC[C@H]2C(=O)N[C@@H](Cc2ccc(Cl)cc2)C(=O)O)C[C@@H]2CCCC[C@@H]21)C(=O)O [compound 308] ({Tridecanoyl-γGlu-AEEA-AEEA}-QRP[hArg][Cha]SHKG[Oic][Nle]P[Phe(4-Cl)]-OH) |
| 8 | 86 | – | 2 | 1.5 | CCCCCCCCCCCCC(=O)N[C@@H](CCC(=O)NCCOCCOCC(=O)NCCOCCOCC(=O)NC(CC(=O)N[C@@H](CCCNC(=N)N)C(=O)N1CCC[C@H]1C(=O)N(C)[C@@H](CCCNC(=N)N)C(=O)NC(CC(=O)N[C@@H](CO)C(=O)N[C@@H](Cc1c[nH]cn1)C(=O)N[C@@H](CCCCN)C(=O)NCC(=O)N1[C@H](C(=O)N[C@@H](CCCC)C(=O)N2CCC[C@H]2C(=O)N[C@@H](Cc2ccc(Cl)cc2)C(=O)O)C[C@@H]2CCCC[C@@H]21)C(C)C)C(C)C)C(=O)O (stereo partly drawn) [compound 394] ({Tridecanoyl-γGlu-AEEA-AEEA}-[ξβ3hV]RP[NMeR][ξβ3hV]SHKG[Oic][Nle]P[Phe(4-Cl)]-OH) |
| 77 | 62 | – | 6 | 52.2 | CCCCCCCCCCCCCCCC(=O)N[C@@H](CCC(=O)NCCOCCOCC(=O)NCCOCCOCC(=O)N[C@H](CCC(N)=O)C(=O)N[C@@H](CCCNC(=N)N)C(=O)N1CCC[C@H]1C(=O)N(C)[C@@H](CCCNC(=N)N)C(=O)N[C@@H](CC1CCCCC1)C(=O)N[C@@H](CO)C(=O)N[C@@H](Cc1c[nH]cn1)C(=O)N[C@@H](CCCCN)C(=O)NCC(=O)N1[C@H](C(=O)N[C@@H](CCCC)C(=O)NC2(C(=O)N[C@@H](Cc3ccc(Cl)cc3)C(=O)O)CCCCC2)C[C@@H]2CCCC[C@@H]21)C(=O)O [compound 584] ({Palmitoyl-γGlu-AEEA-AEEA}-[dQ]RP[NMeR][Cha]SHKG[Oic][Nle][Ac6c][Phe(4-Cl)]-OH) |
| < 1 | 2 | – | 6 | 5.94 | CCCC[C@H](NC(=O)[C@@H]1CCCN1C(=O)CNC(=O)[C@H](CCCCN)NC(=O)[C@H](Cc1c[nH]cn1)NC(=O)[C@H](CO)NC(=O)[C@](C)(CC(C)C)NC(=O)[C@H](CCCCNC(=N)N)NC(=O)[C@@H]1CCCN1C(=O)[C@@H](CCCNC(=N)N)NC(=O)[C@H](CCC(N)=O)NC(=O)COCCOCCNC(=O)COCCOCCNC(=O)CC[C@H](NC(=O)CCCCC(=O)O)C(=O)O)C(=O)N1CCC[C@H]1C(=O)N[C@@H](Cc1ccc(Cl)cc1)C(=O)O [compound 515] |
| 32 | > 90 | – | 11 | 19.8 | CCCCCCCCCCCCCCCC(=O)N[C@@H](CCC(=O)NCCOCCOCC(=O)NCCOCCOCC(=O)N[C@H](CCC(N)=O)C(=O)N[C@@H](CCCNC(=N)N)C(=O)N1CCC[C@H]1C(=O)N(C)[C@@H](CCCNC(=N)N)C(=O)N[C@@H](CC1CCCCC1)C(=O)N[C@@H](CO)C(=O)N[C@@H](Cc1c[nH]cn1)C(=O)N[C@@H](CCCCN)C(=O)NCC(=O)N1[C@H](C(=O)N[C@@H](CCCC)C(=O)N2CCC[C@@]2(C)C(=O)N[C@@H](CC(=O)O)Cc2ccccc2)C[C@@H]2CCCC[C@@H]21)C(=O)O [compound 570] ({Palmitoyl-γGlu-AEEA-AEEA}-[dQ]RP[NMeR][Cha]SHKG[Oic][Nle][αMeP][d(β3hF)]-OH) |
| 15 | > 90 | – | 1 | 0.364 | CCCCCCCCCCCCC(=O)N[C@@H](CCC(=O)NCCOCCOCC(=O)NCCOCCOCC(=O)N[C@@H](CCCCNC(=N)N)C(=O)N[C@@H](CCC(N)=O)C(=O)N[C@@H](CCCCNC(=N)N)C(=O)N1CCC[C@H]1C(=O)N(C)[C@@H](CCCNC(=N)N)C(=O)N[C@@H](CC1CCCCC1)C(=O)N[C@@H](CO)C(=O)N[C@@H](Cc1c[nH]cn1)C(=O)N[C@@H](CCCCN)C(=O)NCC(=O)N1[C@H](C(=O)N[C@@H](CCCC)C(=O)N2CCC[C@H]2C(=O)N[C@@H](Cc2ccc(Cl)cc2)C(=O)O)C[C@@H]2CCCC[C@@H]21)C(=O)O [compound 310] ({Tridecanoyl-γGlu-AEEA-AEEA}-[hArg]Q[hArg]P[NMeR][Cha]SHKG[Oic][Nle]P[Phe(4-Cl)]-OH) |
| 19 | > 90 | – | < 1 | – | CCCCCCCCCCCCC(=O)N[C@@H](CCC(=O)NCCOCCOCC(=O)NCCOCCOCC(=O)N[C@H](CCC(N)=O)C(=O)N[C@@H](CCCNC(=N)N)C(=O)N1CCCC[C@H]1C(=O)N(C)[C@@H](CCCNC(=N)N)C(=O)N[C@@H](CC1CCCCC1)C(=O)N[C@@H](CO)C(=O)N[C@@H](Cc1c[nH]cn1)C(=O)N[C@@H](CCCCN)C(=O)NCC(=O)N1[C@H](C(=O)N[C@@H](CCCC)C(=O)NC(C)(C)C(=O)N[C@@H](Cc2ccc(Cl)cc2)C(=O)O)C[C@@H]2CCCC[C@@H]21)C(=O)O [compound 517] ({Tridecanoyl-γGlu-AEEA-AEEA}-[dQ]R[Pip][NMeR][Cha]SHKG[Oic][Nle][Aib][Phe(4-Cl)]-OH) |
